Assay [1] can be described thus: cells. The format is functional, cell-based. To be noted: Homo sapiens, 72 h.
Description: Antiproliferative activity against human UCH12 cells measured after 72 hrs by alamar blue assay
Assay [2] is described as follows: cells. The format is functional, cell-based. To be noted: Homo sapiens, UCH1, 72 h.
Description: Antiproliferative activity against human UCH1 cells measured after 72 hrs by alamar blue assay
Assay [3] in a line: cells. The class given is functional, cell-based. The conditions noted are these: Homo sapiens, UCH2, 72 h.
Description: Antiproliferative activity against human UCH2 cells measured after 72 hrs by alamar blue assay
Assay [4] deals with T1, Cyclin-G-associated kinase (Homo sapiens) (UniProt O14976).
T1 sequence (whole entry): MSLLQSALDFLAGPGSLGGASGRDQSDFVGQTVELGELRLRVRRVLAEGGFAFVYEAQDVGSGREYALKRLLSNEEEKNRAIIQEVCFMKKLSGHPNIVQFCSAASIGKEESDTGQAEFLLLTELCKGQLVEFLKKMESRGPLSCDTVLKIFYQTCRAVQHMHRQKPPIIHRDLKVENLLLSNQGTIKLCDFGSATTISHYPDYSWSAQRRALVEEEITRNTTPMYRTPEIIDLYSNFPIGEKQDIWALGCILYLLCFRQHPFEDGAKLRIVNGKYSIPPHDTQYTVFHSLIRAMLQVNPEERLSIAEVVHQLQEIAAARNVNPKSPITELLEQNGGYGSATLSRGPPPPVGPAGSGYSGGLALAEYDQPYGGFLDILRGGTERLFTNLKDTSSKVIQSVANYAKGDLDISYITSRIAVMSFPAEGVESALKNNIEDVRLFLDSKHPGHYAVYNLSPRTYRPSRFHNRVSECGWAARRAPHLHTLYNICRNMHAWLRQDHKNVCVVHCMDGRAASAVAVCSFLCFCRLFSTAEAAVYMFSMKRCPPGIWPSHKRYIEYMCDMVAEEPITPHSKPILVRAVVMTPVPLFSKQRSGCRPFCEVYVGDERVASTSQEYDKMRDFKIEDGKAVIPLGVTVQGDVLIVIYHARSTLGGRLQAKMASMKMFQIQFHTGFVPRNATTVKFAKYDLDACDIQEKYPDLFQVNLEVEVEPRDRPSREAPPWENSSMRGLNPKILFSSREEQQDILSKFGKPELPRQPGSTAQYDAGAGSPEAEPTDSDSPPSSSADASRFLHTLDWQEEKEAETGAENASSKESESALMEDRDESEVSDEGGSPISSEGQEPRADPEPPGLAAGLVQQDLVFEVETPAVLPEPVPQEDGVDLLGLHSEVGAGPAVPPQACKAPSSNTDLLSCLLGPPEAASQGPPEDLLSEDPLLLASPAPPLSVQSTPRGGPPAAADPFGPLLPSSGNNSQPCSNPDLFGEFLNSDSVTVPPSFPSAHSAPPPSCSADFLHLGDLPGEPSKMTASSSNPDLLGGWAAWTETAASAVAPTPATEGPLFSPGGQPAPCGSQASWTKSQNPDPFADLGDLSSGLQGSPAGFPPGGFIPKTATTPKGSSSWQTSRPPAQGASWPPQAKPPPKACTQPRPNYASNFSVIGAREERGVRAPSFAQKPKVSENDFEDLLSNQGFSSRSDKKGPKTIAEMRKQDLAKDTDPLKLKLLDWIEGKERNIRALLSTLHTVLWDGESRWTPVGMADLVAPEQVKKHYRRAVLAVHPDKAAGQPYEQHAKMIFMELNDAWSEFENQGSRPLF
The experiment in a line: Binding affinity to wild-type human partial length GAK (G13 to Y338 residues) expressed in bacterial expression system at 1 uM by Kinomescan method relative to control.

The nature of assay [5]: cells. The class given is functional, cell-based. To be noted: Homo sapiens, 72 h. This is another data set of the same source.
Description: Antiproliferative activity against human UCH14 cells measured after 72 hrs by alamar blue assay
Assay [6] in a line: cells. The class given is ADME, cell-based. To be noted: Homo sapiens, WS1, 72 h.
Description: Cytotoxicity against human WS1 cells measured after 72 hrs by alamar blue assay
Assay [7] in a line: cells. To be noted: Homo sapiens, 72 h. The class given is functional, cell-based. This is another data set of the same source.
Description: Antiproliferative activity against human CH22 cells measured after 72 hrs by alamar blue assay
Assay [8] addresses T1, Cyclin-G-associated kinase (Homo sapiens). The experiment in a line: Inhibition of tracer 5 binding to human N-terminal nano luciferase-fused GAK expressed in HEK293 cells at 5 uM measured after 2 hrs by nanoBRET assay relative to control. The format is cell-based.
The nature of assay [9]: cells. The class given is functional, cell-based. To be noted: Homo sapiens, 72 h. The source holds these as a separate data set.
Description: Antiproliferative activity against human UCH7 cells measured after 72 hrs by alamar blue assay
The nature of assay [10]: cells. The class given is functional, cell-based. The conditions noted are these: Homo sapiens, 72 h. The source holds these as a separate data set.
Description: Antiproliferative activity against human UMCHOR1 cells measured after 72 hrs by alamar blue assay
The target in assay [11] is Tyrosine-protein kinase ABL2 (Homo sapiens, UniProt P42684). The experiment in a line: Binding affinity to wild-type human ABL2 (A248 to G542 residues) expressed in bacterial expression system by Kinomescan method.
For assay [12], the target named is Serine/threonine-protein kinase SIK2 (Homo sapiens, UniProt Q9H0K1). The experiment in a line: Binding affinity to wild-type human full length SIK2 (M1 to N926 residues) expressed in bacterial expression system by Kinomescan method.
Assay [13] addresses Proto-oncogene tyrosine-protein kinase receptor Ret (Homo sapiens, UniProt P07949). The experiment in a line: Binding affinity to wild-type human partial length RET (E713 to D1014 residues) expressed in bacterial expression system by Kinomescan method.
Another assay has as its target Activated CDC42 kinase 1 (Homo sapiens, UniProt Q07912). The experiment in a line: Binding affinity to wild-type human partial length TNK2 (S159 to D474 residues) expressed in bacterial expression system by Kinomescan method.
For assay [14], the target named is T2, Serine/threonine-protein kinase D2 (Homo sapiens, UniProt Q9BZL6).
T2 sequence (Q9BZL6 whole entry): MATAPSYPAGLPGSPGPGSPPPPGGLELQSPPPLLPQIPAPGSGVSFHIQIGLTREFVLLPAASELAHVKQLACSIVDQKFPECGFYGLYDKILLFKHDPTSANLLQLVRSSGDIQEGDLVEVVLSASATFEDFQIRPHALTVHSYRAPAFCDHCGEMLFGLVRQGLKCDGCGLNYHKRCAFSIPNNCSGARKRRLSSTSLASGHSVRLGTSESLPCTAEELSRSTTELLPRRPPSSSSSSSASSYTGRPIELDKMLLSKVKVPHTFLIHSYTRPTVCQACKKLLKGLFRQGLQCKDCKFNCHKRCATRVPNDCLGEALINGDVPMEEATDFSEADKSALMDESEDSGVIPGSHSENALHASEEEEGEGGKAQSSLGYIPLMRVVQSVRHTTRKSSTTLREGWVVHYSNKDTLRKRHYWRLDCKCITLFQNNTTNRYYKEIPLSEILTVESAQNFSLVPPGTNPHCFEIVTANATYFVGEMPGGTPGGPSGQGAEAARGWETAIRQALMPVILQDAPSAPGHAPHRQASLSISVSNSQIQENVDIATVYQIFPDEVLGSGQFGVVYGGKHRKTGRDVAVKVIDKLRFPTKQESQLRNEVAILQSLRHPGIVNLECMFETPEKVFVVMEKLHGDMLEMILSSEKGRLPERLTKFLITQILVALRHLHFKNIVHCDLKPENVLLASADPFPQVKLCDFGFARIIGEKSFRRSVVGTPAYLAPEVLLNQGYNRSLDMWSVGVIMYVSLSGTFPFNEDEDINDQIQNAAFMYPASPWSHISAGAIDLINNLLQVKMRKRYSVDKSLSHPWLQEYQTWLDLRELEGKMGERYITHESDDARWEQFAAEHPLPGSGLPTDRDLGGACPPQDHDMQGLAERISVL
The experiment in a line: Binding affinity to wild-type human partial length PRKD2 (A519 to E838 residues) expressed in bacterial expression system by Kinomescan method.

The target of assay [15] is T3, Epidermal growth factor receptor (Homo sapiens, UniProt P00533).
Description: Binding affinity to wild-type human partial length EGFR (R669 to V1011 residues) expressed in bacterial expression system by Kinomescan method
For the next assay, the species on record is Homo sapiens. The experiment in a line: Selectivity ratio of Kd for wild-type human partial length EGFR (R669 to V1011 residues) expressed in bacterial expression system to kd for wild-type human partial length GAK (G13 to Y338 residues) expressed in bacterial expression system.
Assay [16] has as its target Tyrosine-protein kinase ABL1 (Homo sapiens, UniProt P00519). The experiment in a line: Binding affinity to wild-type human ABL1 (S229 to K512 residues) expressed in mammalian expression system by Kinomescan method.
In assay [17] the target is Aurora kinase B (Homo sapiens) (UniProt Q96GD4). The experiment in a line: Binding affinity to AURKB in human SUM159 cell lysates by multiplexed inhibitor bead profiling-based LC-MS/MS analysis. The class given is subcellular. The conditions noted are these: Lysate.
The target of assay [18] is T3, Epidermal growth factor receptor. The format is cell-based.
Description: Inhibition of EGFR in human A431 cells assessed as reduction in EGF-stimulated EGFR autophosphorylation preincuabted for 90 mins followed by EGF-stimulation by sandwich-ELISA
For assay [19], the target named is T4, Cyclin-G-associated kinase (Homo sapiens, UniProt O14976).
T4 sequence (O14976 whole entry): T1 sequence (whole entry)
The experiment in a line: Binding affinity to wild-type human partial length GAK (G13 to Y338 residues) expressed in bacterial expression system by Kinomescan method.

Assay [20] deals with Nucleoside diphosphate kinase B (Homo sapiens) (UniProt P22392). The experiment in a line: Binding affinity to NME2 in human SUM159 cell lysates by multiplexed inhibitor bead profiling-based LC-MS/MS analysis. The format is subcellular. The conditions noted are these: Lysate.
In assay [21] the target is T5, Dual specificity mitogen-activated protein kinase kinase 5 (Homo sapiens) (UniProt Q13163).
T5 sequence (whole entry): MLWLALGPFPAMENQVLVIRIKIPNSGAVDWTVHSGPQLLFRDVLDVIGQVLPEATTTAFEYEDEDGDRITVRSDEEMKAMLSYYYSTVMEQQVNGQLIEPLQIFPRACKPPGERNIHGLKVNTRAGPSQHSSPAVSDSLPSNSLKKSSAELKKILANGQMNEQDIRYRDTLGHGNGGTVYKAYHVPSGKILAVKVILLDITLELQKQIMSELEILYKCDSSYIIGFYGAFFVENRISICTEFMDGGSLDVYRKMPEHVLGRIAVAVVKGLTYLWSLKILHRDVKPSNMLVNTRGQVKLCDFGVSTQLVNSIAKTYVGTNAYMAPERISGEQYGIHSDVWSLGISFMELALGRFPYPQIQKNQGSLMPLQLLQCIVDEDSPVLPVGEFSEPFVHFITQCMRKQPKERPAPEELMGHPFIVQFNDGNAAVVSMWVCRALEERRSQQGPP
The experiment in a line: Binding affinity to MAP2K5 in human SUM159 cell lysates by multiplexed inhibitor bead profiling-based LC-MS/MS analysis. The class given is subcellular. The conditions noted are these: Lysate.

The text below walks through data of ChEMBL document CHEMBL4393671, “Design of a Cyclin G Associated Kinase (GAK)/Epidermal Growth Factor Receptor (EGFR) Inhibitor Set to Interrogate the Relationship of EGFR and GAK in Chordoma” (J Med Chem, 2019).

pIC50, pKd: −log10 of the molar value. Activity calls are given as the source filed them. No cut-off for these calls is given here.

T3 sequence (P00533 whole entry, the tested form may be a part): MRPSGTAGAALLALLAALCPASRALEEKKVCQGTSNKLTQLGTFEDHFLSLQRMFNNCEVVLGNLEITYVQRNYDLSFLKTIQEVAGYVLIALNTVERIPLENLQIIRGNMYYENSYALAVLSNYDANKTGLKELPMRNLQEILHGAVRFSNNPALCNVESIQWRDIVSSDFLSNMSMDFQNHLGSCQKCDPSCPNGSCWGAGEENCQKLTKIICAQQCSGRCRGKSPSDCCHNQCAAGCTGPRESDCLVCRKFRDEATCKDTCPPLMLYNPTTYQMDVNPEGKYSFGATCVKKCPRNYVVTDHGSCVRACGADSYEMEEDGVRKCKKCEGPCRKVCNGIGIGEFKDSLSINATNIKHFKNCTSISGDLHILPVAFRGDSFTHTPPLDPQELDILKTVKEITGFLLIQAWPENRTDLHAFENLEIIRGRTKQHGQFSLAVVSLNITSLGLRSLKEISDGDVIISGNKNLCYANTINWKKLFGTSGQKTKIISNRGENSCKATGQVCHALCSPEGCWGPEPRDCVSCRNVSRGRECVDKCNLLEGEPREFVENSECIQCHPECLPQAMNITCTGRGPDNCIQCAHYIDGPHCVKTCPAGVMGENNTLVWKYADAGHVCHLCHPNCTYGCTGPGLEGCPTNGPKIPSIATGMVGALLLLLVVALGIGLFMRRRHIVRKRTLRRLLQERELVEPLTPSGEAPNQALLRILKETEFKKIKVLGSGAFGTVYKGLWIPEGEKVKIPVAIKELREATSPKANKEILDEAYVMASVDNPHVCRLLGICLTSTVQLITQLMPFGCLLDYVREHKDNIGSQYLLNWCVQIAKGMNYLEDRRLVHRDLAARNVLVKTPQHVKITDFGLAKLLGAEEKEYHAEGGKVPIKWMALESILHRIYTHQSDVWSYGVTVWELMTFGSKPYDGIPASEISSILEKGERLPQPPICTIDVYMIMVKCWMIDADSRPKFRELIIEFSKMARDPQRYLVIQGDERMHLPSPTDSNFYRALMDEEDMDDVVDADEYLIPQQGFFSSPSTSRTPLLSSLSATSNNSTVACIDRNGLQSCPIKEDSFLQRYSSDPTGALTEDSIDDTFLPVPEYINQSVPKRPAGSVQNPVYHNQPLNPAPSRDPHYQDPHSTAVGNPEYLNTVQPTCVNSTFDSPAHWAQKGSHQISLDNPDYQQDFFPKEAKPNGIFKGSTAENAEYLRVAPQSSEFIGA
Proto-oncogene tyrosine-protein kinase receptor Ret, sequence (P07949 whole entry, the tested form may be a part): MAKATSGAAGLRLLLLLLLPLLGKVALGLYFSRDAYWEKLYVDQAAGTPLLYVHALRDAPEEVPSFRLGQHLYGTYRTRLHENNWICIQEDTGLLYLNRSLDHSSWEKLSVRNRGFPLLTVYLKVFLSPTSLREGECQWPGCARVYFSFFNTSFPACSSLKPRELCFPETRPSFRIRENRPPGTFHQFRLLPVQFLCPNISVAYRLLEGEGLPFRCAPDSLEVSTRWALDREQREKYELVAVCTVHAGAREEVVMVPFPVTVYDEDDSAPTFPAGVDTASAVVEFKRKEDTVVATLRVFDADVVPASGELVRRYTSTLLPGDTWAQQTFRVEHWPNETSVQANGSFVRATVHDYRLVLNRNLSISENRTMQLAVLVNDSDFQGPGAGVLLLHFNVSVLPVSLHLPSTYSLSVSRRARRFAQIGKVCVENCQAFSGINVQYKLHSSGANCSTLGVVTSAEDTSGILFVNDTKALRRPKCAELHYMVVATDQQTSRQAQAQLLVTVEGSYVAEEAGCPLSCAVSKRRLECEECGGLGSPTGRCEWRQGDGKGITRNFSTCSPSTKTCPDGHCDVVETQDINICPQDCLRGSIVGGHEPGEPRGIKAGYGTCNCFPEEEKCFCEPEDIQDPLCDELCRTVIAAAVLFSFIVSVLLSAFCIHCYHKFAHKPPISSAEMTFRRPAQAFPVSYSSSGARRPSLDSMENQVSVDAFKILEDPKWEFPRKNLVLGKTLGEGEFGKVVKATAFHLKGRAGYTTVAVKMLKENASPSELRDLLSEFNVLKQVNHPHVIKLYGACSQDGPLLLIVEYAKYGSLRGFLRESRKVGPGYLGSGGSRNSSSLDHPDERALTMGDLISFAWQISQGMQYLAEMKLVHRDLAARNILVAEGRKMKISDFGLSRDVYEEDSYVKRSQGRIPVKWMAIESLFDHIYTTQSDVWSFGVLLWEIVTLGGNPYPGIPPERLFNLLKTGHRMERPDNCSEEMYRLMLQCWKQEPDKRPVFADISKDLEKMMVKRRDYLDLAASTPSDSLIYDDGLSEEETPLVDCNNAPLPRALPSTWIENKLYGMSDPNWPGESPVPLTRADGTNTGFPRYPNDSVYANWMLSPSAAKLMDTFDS
Tyrosine-protein kinase ABL1, sequence (P00519 whole entry, the tested form may be a part): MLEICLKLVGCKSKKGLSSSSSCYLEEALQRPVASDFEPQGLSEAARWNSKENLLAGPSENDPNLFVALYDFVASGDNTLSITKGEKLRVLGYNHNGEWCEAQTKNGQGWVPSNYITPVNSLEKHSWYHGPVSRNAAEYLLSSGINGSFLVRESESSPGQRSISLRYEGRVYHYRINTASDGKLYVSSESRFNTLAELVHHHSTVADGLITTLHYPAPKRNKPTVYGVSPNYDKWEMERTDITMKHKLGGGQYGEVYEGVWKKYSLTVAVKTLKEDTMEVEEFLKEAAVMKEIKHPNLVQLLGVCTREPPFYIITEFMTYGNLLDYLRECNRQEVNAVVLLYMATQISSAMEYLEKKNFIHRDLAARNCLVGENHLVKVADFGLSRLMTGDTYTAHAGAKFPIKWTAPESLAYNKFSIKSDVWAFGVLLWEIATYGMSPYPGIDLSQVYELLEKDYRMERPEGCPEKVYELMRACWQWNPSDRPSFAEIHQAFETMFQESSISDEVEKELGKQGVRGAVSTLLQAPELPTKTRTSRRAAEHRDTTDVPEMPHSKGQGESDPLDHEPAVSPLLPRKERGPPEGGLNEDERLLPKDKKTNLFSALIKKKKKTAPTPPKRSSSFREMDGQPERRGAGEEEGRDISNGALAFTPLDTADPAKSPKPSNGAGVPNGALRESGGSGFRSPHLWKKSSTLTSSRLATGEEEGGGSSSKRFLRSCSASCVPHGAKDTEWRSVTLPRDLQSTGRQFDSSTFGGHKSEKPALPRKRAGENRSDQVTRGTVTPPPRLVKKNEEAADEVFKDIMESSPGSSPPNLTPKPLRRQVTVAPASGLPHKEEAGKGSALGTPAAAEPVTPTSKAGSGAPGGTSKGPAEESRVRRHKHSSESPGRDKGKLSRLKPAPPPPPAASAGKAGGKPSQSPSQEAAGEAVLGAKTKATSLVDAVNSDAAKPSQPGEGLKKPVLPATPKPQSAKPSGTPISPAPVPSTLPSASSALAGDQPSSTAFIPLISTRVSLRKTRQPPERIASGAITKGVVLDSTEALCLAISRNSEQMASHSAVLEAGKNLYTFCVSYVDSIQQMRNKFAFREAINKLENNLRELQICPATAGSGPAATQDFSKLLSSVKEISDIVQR
Aurora kinase B (Homo sapiens), sequence (Q96GD4 whole entry): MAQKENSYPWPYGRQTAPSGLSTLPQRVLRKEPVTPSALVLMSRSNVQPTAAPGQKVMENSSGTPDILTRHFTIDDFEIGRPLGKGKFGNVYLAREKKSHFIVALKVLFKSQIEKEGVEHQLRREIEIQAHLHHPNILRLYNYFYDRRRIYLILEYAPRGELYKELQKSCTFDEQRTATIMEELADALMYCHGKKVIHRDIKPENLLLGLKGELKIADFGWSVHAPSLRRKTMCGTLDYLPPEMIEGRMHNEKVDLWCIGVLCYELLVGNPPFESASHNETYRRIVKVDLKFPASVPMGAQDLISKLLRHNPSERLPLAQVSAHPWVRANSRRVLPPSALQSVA
Activated CDC42 kinase 1, sequence (Q07912 whole entry, the tested form may be a part): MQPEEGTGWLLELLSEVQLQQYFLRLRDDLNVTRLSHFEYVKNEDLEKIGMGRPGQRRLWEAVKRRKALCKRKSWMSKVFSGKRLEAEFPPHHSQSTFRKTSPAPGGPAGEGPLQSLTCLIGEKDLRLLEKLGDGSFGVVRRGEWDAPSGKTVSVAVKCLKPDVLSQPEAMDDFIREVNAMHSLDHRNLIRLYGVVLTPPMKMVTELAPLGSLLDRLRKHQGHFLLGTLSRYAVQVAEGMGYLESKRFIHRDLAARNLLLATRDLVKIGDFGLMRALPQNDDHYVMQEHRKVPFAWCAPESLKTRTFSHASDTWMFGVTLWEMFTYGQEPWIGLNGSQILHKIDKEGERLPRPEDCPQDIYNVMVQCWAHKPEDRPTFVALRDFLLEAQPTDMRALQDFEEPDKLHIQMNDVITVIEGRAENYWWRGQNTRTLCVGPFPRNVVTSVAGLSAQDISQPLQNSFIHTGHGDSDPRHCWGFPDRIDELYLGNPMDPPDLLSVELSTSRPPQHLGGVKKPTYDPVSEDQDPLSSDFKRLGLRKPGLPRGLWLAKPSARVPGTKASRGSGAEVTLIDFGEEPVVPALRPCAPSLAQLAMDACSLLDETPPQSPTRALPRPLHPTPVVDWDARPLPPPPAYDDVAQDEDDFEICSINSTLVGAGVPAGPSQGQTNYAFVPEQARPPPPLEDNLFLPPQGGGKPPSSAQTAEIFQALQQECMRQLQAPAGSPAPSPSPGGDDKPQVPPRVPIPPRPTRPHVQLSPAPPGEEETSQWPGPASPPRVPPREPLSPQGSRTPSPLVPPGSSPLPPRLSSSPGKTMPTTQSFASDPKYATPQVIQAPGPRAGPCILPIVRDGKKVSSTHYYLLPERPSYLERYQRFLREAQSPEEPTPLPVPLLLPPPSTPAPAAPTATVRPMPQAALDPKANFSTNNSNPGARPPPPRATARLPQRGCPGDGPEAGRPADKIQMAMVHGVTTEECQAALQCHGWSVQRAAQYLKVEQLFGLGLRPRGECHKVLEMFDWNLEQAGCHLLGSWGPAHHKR
Nucleoside diphosphate kinase B (Homo sapiens), sequence (P22392 whole entry): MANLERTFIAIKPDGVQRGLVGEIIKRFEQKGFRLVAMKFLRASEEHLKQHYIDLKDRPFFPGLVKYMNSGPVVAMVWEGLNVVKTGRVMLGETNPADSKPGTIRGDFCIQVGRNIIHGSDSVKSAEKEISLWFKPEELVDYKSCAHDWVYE

Turning to `CS(=O)(=O)CCNCc1ccc(-c2ccc3ncnc(Nc4ccc(OCc5cccc(F)c5)c(Cl)c4)c3c2)o1` [LAPATINIB], the pIC50 in the assay “cells [1]” was 4.48; in the assay “cells [2]” it was 5.49; in “cells [3]” it was less than 4.30; in “cells [5]”, less than 4.30; in the assay “cells [6]”, 4.89; in the assay “cells [7]”, 4.60. The results for the pIC50 in “cells [9]” and in “cells [10]” were 4.59 and 4.60, respectively. The same compound showed an Activity in assay [4] of less than 50%. The inhibition in assay [8] stood at 0%.

Consider `COc1cccc(Nc2ncnn3ccc(CN4CC[C@@H](N)[C@H](O)C4)c23)c1` [BMS-690514], for which the pKd is greater than 6.65 in [11]; greater than 6.65 in assay [12]; greater than 6.65 in [13]; greater than 6.65 on Activated CDC42 kinase 1; greater than 6.65 in [14]; 6.66 in [15]. In assay [16], this compound had a negative-log Kd (pKd) greater than 6.65. Besides, the pIC50 in “cells [2]” was 6.28; in “cells [3]”, less than 4.30. Moreover, in the assay filed under Homo sapiens, the Selectivity ratio is greater than 700.

With `COc1cc2nccc(Nc3ccc(OCc4cccc(F)c4)c(Cl)c3)c2cc1OC`, the negative-log IC50 (pIC50) in the assay “cells [1]” is 5.26; in [18] it was 5.77; in “cells [2]”, 5.59; in the assay “cells [3]” it was 5.54; in the assay “cells [5]” it was 5.15; in “cells [6]” it was 5.07. In addition, the pIC50 was 6.00 in “cells [7]”, 5.57 in the assay “cells [9]” and 5.82 in the assay “cells [10]”. In addition, the outcome in assay [17], in assay [20] and in [21] was Active. The pKd was less than 5.00 in [19] and 7.49 in [15]. Also, in assay [8], the inhibition was 22%.
